Experimental data as given in US20100178243A1, “Novel method of stabilizing diagnostic and therapeutic compounds in a cationic carrier system” (MediGene AG, priority 2002, published 2010).
Each block holds one compound with its values, some of them ahead of it.

Tests used:
[1] = Gel filtration (Microspin S-300 HR) separation of non-associated patent blue from liposomes; type: physicochemical; conditions: 50 μl loaded on Microspin S-300 HR
Description: Gel filtration is employed to separate the dye (MW<1000 Da) from the colloidal liposome. The free dye is retained in the pores of the column, the liposomes are so large that they elute without retention in the void volume. It is expected that in a liposomal formulation with a lipid concentration of 10 mM approximately 2% of the aqueous phase is entrapped in the liposomes, 98% are not entrapped (Liposomes a practical approach, Ed. R. R. C. New, IRL Press, Oxford 1990). This amount of dye is to be separated from the liposome by gel filtration.
A Microspin™ S-300 HR column (Amersham) was pre-equilibrated as required in the product description and loaded with 50 μl of the neutral liposomal formulation C. The goal was to investigate whether patent blue not associated with the liposomes can be separated from the liposomal fraction as described in the literature (Reynolds, J. A.; Nozaki, Y.; Tanford, C. Gel-exclusion chromatography on S1000 Sephacryl: application to phospholipid vesicles. Anal Biochem 1983, 130 (2), 471-474.) The majority of the dye was retained on the column, a slightly blue solution eluted (liposomes with associated dye; about 2% as estimated by UV spectroscopy). This illustrates that for neutral liposomes we can apply well-established separation protocols to separate un-associated material. […]

[2] = Diafiltration: retention of fluorescein dyes in liposome suspension (direct loading); type: physicochemical; conditions: for Conc. marker after diafiltration: 25 mM
Description: Liposomes may be formed by the well-known film method, such as described in the literature.[1] Briefly, from the organic solution of the lipid, or the lipid plus the drug, the solvent is evaporated, and a thin film of lipid (or lipid plus drug) is formed at the inner wall of a flask. The thin molecular film is resuspended in an aqueous phase, which contains the dye, and which may contain further components such as buffers, ions, cryoprotectants, etc. A typical formulation consists of a suspension of 25 mM DOTAP/DOPC 1:1, which is resuspended by a 5 mM solution of the dye.
(§1) As an example, in table 1 the results from some experiments are given. For comparison as well a formulation with anionic lipids was performed. For the anionic liposomes, most of the dye is lost during diafiltration, while for the cationic liposomes a large molar fraction of the dye remains immobilized in the lioposme suspension. […] For the CF experiments a lower bulk concentration of the dye was selected, because in that case binding is so strong, that for higher concentrations the liposomes will be destabilized due to the sterical hindrance by the CF molecules. The fraction of dye which was found immobilized in the suspensions from cationic liposomes was much higher that for the (anionic) DOPG containing liposomes. A band shift (λ max) in the absorption spectrum was observed, which increased as AF<F<CF, indication increasing binding strength. On the contrary, for the DOPG liposomes, no shift of the absorption maximum occurred. This can be seen most clearly in FIG. 1, where the complete spectra for the free and the liposomal dyes are depicted.
Separation of low molecular compounds from the liposomal suspensions Diafiltration techniques were used to separate low molecular components from the liposomal suspensions. For the above described 15 mM DOTAP/DOPC 1:1 formulations with 5 mM dye in the aqueous phase, ca. 50% of the dye was retained in the liposome suspension for AF, and 60% was retained for F. With 0.5 mM of CF, virtually 100% of the dye was retained in the solution (the amount of released dye was monitored by UV-vis)spectroscopy.

[3] = UV-vis absorption maximum (band shift) of liposome-associated fluorescein dyes; type: physicochemical; conditions: 25 mM
Description: as §1, with “depicted. All stages of formulation are monitored by HPLC analysis (lipid and drug) and by UV-vis spectroscopy. In HPLC analysis a slight loss of material after extrusion may be observed. UV-vis spectroscopy serves as a qualitative means in order to control formulation efficacy. The UV-vis spectra of the dye are shifted on binding to the lipid. The band shift is a function of the binding constant and the fraction of lipid bound and free dye can be estimated by UV-vis spectroscopy.” for “depicted.”

[4] = Liposomal fluoride concentration after dialysis (ion chromatography); type: physicochemical; conditions: rehydrated with 150 mM sodium fluoride, 3 dialysis steps
Description: The lipids (either 10 mM DOTAP or 10 mM DOPC) are dissolved in chloroform and the solution is transferred into a round bottom flask. The organic solvent is evaporated under reduced pressure forming a clear lipid film on the flask's surface. This film is dried at 40° C. under vacuum (3 to 5 mbar) for about 60 minutes. Then, the film is rehydrated with the appropriate volume of an aqueous 150 mM sodium fluoride solution resulting in a liposomal solution. The next day, the liposomal solution is extruded 5 times through a 200 nm membrane. The size of the liposomes is determined by PCS (Zetasizer 1000 and 3000, Malvern Instruments). The fluoride that is not associated with the liposomes is removed by 3 successive dialysis steps (8 hours, Pierce, Slide-A-Lyzer dialysis cassette; 10000 molecular weight cut off) and the liposomal fluoride concentration is established by ion chromatography. For cationic 10 mM DOTAP liposomes the fluoride concentration is 1.3 mM, whereas the fluoride ion concentration is about 4 times lower for neutral 10 mM DOPC liposomes (0.3 mM fluoride). The far lower fluoride ion concentration of neutral liposomes is explained by the attractive forces of cationic lipids interacting with the negatively charged halide anion.

[5] = Remote loading of DOTAP/DOPC liposomes with AF, dialysis and UV-vis; type: physicochemical; conditions: remote loading: 25 mM DOTAP/DOPC liposomes mixed with equal volume of 5 mM AF
Description: The association of the dye to the liposomes can be performed as well to an already prepared formulation, by simply mixing the dye solution with the liposome suspension. […] The efficacy of the loading can be determined by diafiltration and by UV-vis and fluorescence spectroscopy of the suspension. As an example the results from remote loading of DOTAP/DOPC liposomes with AF (the most weakly binding fluorescein variety) are given. A 25 mM suspension of the pure lipid liposomes was prepared by the standard procedure. Then a 5 mM solution of AF was added to the suspension (equal volumina). Subsequently the suspension was dialyzed in order to remove the free dye. The dye content in the solution was controlled by UV-vis spectroscopy. In FIG. 2, the spectra after mixing, after dialysis, and after addition of triton are shown. The triton was added in order to destroy the liposomes and the release the lipid-bound dye.

[6] = Chemical stability of succinyl paclitaxel in aqueous solution (HPLC, paclitaxel release); type: physicochemical; conditions: for paclitaxel release: 4° C., 0.1 mM Tris-buffered
A-375 = assay: MTT cell viability assay, 72 h; type: cell-based; conditions: Homo sapiens
Description: (§2) A-375 ([…]) and Ea.Hy cells ([…]) is seeded at a constant density (2×10^4/cm^2) in 24-well plates and cultivated over night at conditions of 5-5.5% CO2, 37° C. and ˜90% humidity. At day 1, cell culture medium is replaced by a mixture of fresh medium and a series of 11 consecutive drug dilutions is added to each well (duplicates) to cover a range between 0.1 and 1000 nM final drug concentration. After 72 h, the cell viability in each well is determined by measuring the activity of mitochondrial dehydrogenases (MTT assay). In viable cells the MTT substrate is converted to a blue, cell impermeable dye (Formazan). After 1 h the medium is removed, cells are lysed with isopropanol/0.04% HCl and the amount of the blue Formazan given as optical density at a wavelength of 550 nm (OD550 nm) quantitated in an ELISA reader. The experiment is evaluated using the Sigma Plot analysis software by plotting the mean OD550 nm value against the respective drug concentration. A best fit curve is calculated based on a double-sigmoid assumption algorithm and the IC50 value is determined according to this best fit curve with the following result: […]

Ea.Hy cells = assay: MTT cell viability assay, 72 h; type: cell-based; conditions: Homo sapiens
Description: as §2

A-375 Melanoma = assay: Treatment of A-375 melanoma in NMRI nude mice with Taxol and SuccTXL cationic liposomes; type: in vivo; conditions: iv, three times a week for three weeks, equitoxic doses; s.c. A-375 tumors; FIG. 9
Description: NMRI-nude mice from Elevage Janvier and housed in isolated ventilated cages under save environmental conditions (SPF facility, 22° C., 30-70% humidity, 12 h light/dark cycle) with food and water ad libitum. Experimental design was reviewed and approved by local government.
Tumor cells (A-375 human melanoma cell line, ATCC Nr.: CRL-1619) were grown as described in the data sheet supplied by ATCC. Tumor cells (5×10^6 in PBS) were inoculated s.c. in the right dorsal flank of mice in a volume of 50 μl on day 0.
Mice were assigned to the experimental groups (8 animals per cage), housed and handled (including monitoring of the body weight gain) at least five days before tumor inoculation (=day −6 to 0). Drug treatment begins after the tumors reached a volume of approximately 100 mm^3. […] Equitoxic doses of the compounds were determined in separate experiments, where toxicity was evaluated based on haematological parameters, body weight and animal clinical observations. […]
Animals were clinically monitored during the whole experiment and for at least one week after treatment was finished. […] The tumor dimensions were measured by calliper and the tumor size was calculated according to the following formula: V=πLW^2/6 (L=greatest length, W=width of perpendicular axis). […] The number of red and white blood cells and platelets were determined using an automated cell counter (Abbott Cell Dyn 3500).

Compound: CCN(CC)c1ccc(C(=C2C=CC(=[N+](CC)CC)C=C2)c2cc(O)c(S(=O)(=O)O)cc2S(=O)(=O)O)cc1 [PB, Patent blue]
separation of dye from liposomes on gel filtration column (in words) [1]: trapped in the pores of the column material

dye retained in the liposome suspension after diafiltration ([2]; 15 mM DOTAP/DOPC 1:1, 0.5 mM of CF): ~100%
Conc. marker after diafiltration ([2]; DOPG/DOPC 95/5 (anionic) liposomes, conc. before diafiltration 1.9 mg/ml): 120 µg/mL
Conc. marker after diafiltration ([2]; DOTAP/DOPC 50/50 liposomes, conc. before diafiltration 0.19 mg/ml): 190 µg/mL
λ max ([3]; DOPG/DOPC 95/5 liposomes): 492.6 nm
λ max ([3]; DOTAP/DOPC 50/50 liposomes): 506 nm
Compound: carboxy-fluorescein [CF]

liposomal fluoride concentration ([4]; cationic 10 mM DOTAP liposomes): 1.3 mM
liposomal fluoride concentration ([4]; neutral 10 mM DOPC liposomes): 0.3 mM
Compound: [F-].[Na+] [fluoride, sodium fluoride]

dye retained in the liposome suspension after diafiltration ([2]; 15 mM DOTAP/DOPC 1:1, 5 mM dye in the aqueous phase): ca. 50%
Conc. marker after diafiltration ([2]; DOTAP/DOPC 50/50 liposomes, conc. before diafiltration […]): 800 µg/mL
λ max ([3]; DOTAP/DOPC 50/50 liposomes): 497.6 nm
dye remained bound to the liposomes after dialysis [5]: ca. 50%
Compound: Nc1ccc(-c2c3ccc(=O)cc-3oc3cc(O)ccc23)c(C(=O)O)c1 [AF, aminofluorescein]

paclitaxel release ([6]; pH 5, after 9 days): 4%
paclitaxel release ([6]; pH 7, after 9 days): 4%
paclitaxel release ([6]; pH 9, after 9 days): 70%
paclitaxel release (in words) ([6]; 40° C., all pH values (5, 7, 9), within 56 hours): intensive release of paclitaxel
IC50 (A-375): 10 nM
Compound: CC(=O)O[C@H]1C(=O)[C@@]2(C)C([C@H](OC(=O)c3ccccc3)[C@]3(O)C[C@H](OC(=O)C(OC(=O)CCC(=O)O)C(NC(=O)c4ccccc4)c4ccccc4)C(C)=C1C3(C)C)[C@]1(OC(C)=O)CO[C@@H]1C[C@@H]2O (stereo partly drawn) [succinyl paclitaxel]
IC50 (Ea.Hy cells): 17 nM

IC50 (A-375): 2 nM
Compound: CC(=O)O[C@H]1C(=O)[C@@]2(C)[C@H]([C@H](OC(=O)c3ccccc3)[C@]3(O)C[C@H](OC(=O)[C@H](O)[C@@H](NC(=O)c4ccccc4)c4ccccc4)C(C)=C1C3(C)C)[C@]1(OC(C)=O)CO[C@@H]1C[C@@H]2O [Taxol ®, Paclitaxel]
IC50 (Ea.Hy cells): 3 nM
tumor growth rate (in words) (A-375 Melanoma): reduced the tumor growth only to a limited extent
